Patent US20120095739A1, “METHOD FOR DETERMINING THE EFFICACY OF A COMBINATION THERAPY” (priority 2009, published 2012)

Test system: HIV-1
Conditions: double robust estimation; for Weight (drug weight, PI): difference in viral load response (log scale) vs lopinavir after 8 weeks of stable treatment
Source text: Therefore, statistical models were applied to handle these differences. […] E.g.

Row | Substance | difference in viral load change vs patients taking lopinavir (after 8 weeks of stable treatment) [log viral load] | Weight (drug weight, PI)
1 | atazanavir [ATV/r] | −0.02 | −0.02
2 | lopinavir [LPV/r] |  | 0
